This experiment concerns PKC mediated IL-2 production in human primary T cells. Nature of the experiment: IL-2 ELISA, human primary T cell, anti CD3+CD28+ (whole cell functional assay for PKC mediated IL-2 production). The experiment is classed as cell-based. The gist of the method:
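IL-2 in supernatants was quantified by ELISA after 24 h at 37 °C. Before stimulation with plate-coated anti-CD3 (1 μg/ml) and anti-CD28 (5 μg/ml), T cells expanded from PBMC were exposed to compound for 1 h; the counter-screen replaced antibodies with PMA 0.5 ng/ml and ionomycin 0.1 μM (final).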
In general terms: ELISA stands for enzyme-linked immunosorbent assay.

The mark [1] stands for this setting: 24 h, human primary T cells stimulated with anti-CD3 + anti-CD28, IL-2 by ELISA, read-out: IC50 for blocking IL-2 production.
Setting [2] is: human primary T cells stimulated with anti-CD3 + anti-CD28, 24 h, IL-2 by ELISA, 8 pt, read-out: IL2 ELISA, Human primary T cell, anti-CD3 + CD28, 8 pt (IC50).

pIC50: −log10 of the molar value. Where two headings read alike, the source gives them in different places. Bounds are passed on as bounds.

As a reminder, the pIC50 is the negative decadic logarithm of the IC50, by convention in mol/L.

For the compound `Cc1cnc(Nc2cc(-n3nnn(C)c3=O)c(C3CC3)cc2F)nc1NC[C@@H]1CCCN2CCCC[C@H]12` [Compound 61, 1-(5-(4-(((1S,9aR)-octahydro-1H-quinolizin-1-yl)methylamino)-5-methylpyrimidin-2-ylamino)-2-cyclopropyl-4-fluorophenyl)-4-methyl-1H-tetrazol-5(4H)-one], the pIC50 under setting [1] is above 4.52 and the pIC50 under setting [2] was 5.70.

`Cc1cnc(Nc2ccc(F)c(-n3nnnc3C)c2)nc1NC[C@@H]1CCCN2CCCC[C@H]12` [Compound 62, N2-(4-fluoro-3-(5-methyl-1H-tetrazol-1-yl)phenyl)-N4-(((1S,9aR)-octahydro-1H-quinolizin-1-yl)methyl)-5-methylpyrimidine-2,4-diamine]: the pIC50 is above 4.52 under setting [1] and 5.73 under setting [2].

Take `Cc1cnc(Nc2cc(-n3nnnc3C)ccc2F)nc1NC[C@@H]1CCCN2CCCC[C@H]12` [Compound 63, N2-(2-fluoro-5-(5-methyl-1H-tetrazol-1-yl)phenyl)-N4-(((1S,9aR)-octahydro-1H-quinolizin-1-yl)methyl)-5-methylpyrimidine-2,4-diamine]: the pIC50 under setting [1] was above 4.52 and the pIC50 under setting [2] is 5.94.

As for `COc1ccc(Nc2ncc(C)c(NC[C@@H]3CCCN4CCCC[C@H]34)n2)cc1-n1nnnc1C` [Compound 64, N4-(((1S,9aR)-octahydro-1H-quinolizin-1-yl)methyl)-N2-(4-methoxy-3-(5-methyl-1H-tetrazol-1-yl)phenyl)-5-methylpyrimidine-2,4-diamine], the pIC50 was above 4.52 under setting [1] and 6.34 under setting [2].

Regarding `COc1cc(Nc2ncc(C)c(NC[C@@H]3CCCN4CCCC[C@H]34)n2)cc(-n2nnnc2C)c1` [Compound 65, N4-(((1S,9aR)-octahydro-1H-quinolizin-1-yl)methyl)-N2-(3-methoxy-5-(5-methyl-1H-tetrazol-1-yl)phenyl)-5-methylpyrimidine-2,4-diamine], the pIC50 is above 4.52 under setting [1] and 7.14 under setting [2].

With `Cc1cnc(Nc2cccc(C#N)c2)nc1NC[C@@H]1CCCN2CCCC[C@H]12` [Compound 66, 3-(4-(((1S,9aR)-octahydro-1H-quinolizin-1-yl)methylamino)-5-methylpyrimidin-2-ylamino)benzonitrile], the pIC50 reads like this: under setting [1], above 4.52; under setting [2], 5.83.

For the compound `Cc1ccc(Nc2ncc(C)c(NC[C@@H]3CCCN4CCCC[C@H]34)n2)cc1C#N` [Compound 67, 5-(4-(((1S,9aR)-octahydro-1H-quinolizin-1-yl)methylamino)-5-methylpyrimidin-2-ylamino)-2-methylbenzonitrile], the pIC50 was above 4.52 under setting [1] and 5.97 under setting [2].

Regarding `Cc1cnc(Nc2ccc(C3CC3)c(C#N)c2)nc1NC[C@@H]1CCCN2CCCC[C@H]12` [Compound 68, 5-(4-(((1S,9aR)-octahydro-1H-quinolizin-1-yl)methylamino)-5-methylpyrimidin-2-ylamino)-2-cyclopropylbenzonitrile], the pIC50 reads like this: under setting [1], above 4.52; under setting [2], 6.02.

On to `Cc1cnc(Nc2cc(C#N)c(C3CC3)cc2F)nc1NC[C@@H]1CCCN2CCCC[C@H]12` [Compound 69, 5-(4-(((1S,9aR)-octahydro-1H-quinolizin-1-yl)methylamino)-5-methylpyrimidin-2-ylamino)-2-cyclopropyl-4-fluorobenzonitrile], for which the pIC50 runs as follows: under setting [1], above 4.52; under setting [2], 6.58.

With `COc1cc(Nc2ncc(C)c(NC[C@@H]3CCCN4CCCC[C@H]34)n2)cc(OC)c1` [Compound 70, N4-(((1S,9aR)-octahydro-1H-quinolizin-1-yl)methyl)-N2-(3,5-dimethoxyphenyl)-5-methylpyrimidine-2,4-diamine], the pIC50 was above 4.52 under setting [1] and 5.82 under setting [2].

On to `Cc1cnc(Nc2ccc3oc(=O)[nH]c3c2)nc1NC[C@@H]1CCCN2CCCC[C@H]12` [Compound 71, 5-(4-(((1S,9aR)-octahydro-1H-quinolizin-1-yl)methylamino)-5-methylpyrimidin-2-ylamino)benzo[d]oxazol-2(3H)-one], for which the pIC50 is, setting by setting: under setting [1], above 4.52; under setting [2], 5.43.

`COc1cnc(Nc2cc(-n3cnnn3)c(C3CC3)cc2F)nc1NC[C@@H]1CCCN2CCCC[C@H]12` [Compound 72, N2-(4-cyclopropyl-2-fluoro-5-(1H-tetrazol-1-yl)phenyl)-N4-(((1S,9aR)-octahydro-1H-quinolizin-1-yl)methyl)-5-methoxypyrimidine-2,4-diamine]: the pIC50 is, setting by setting: under setting [1], above 4.52; under setting [2], 5.90.

Regarding `COc1cnc(Nc2ccc(C)c(-n3cnnn3)c2)nc1NC[C@@H]1CCCN2CCCC[C@H]12` [Compound 73, N4-(((1S,9aR)-octahydro-1H-quinolizin-1-yl)methyl)-5-methoxy-N2-(4-methyl-3-(1H-tetrazol-1-yl)phenyl)pyrimidine-2,4-diamine], the pIC50 runs as follows: under setting [1], above 4.52; under setting [2], 5.49.

On to `COc1cnc(Nc2cc(-n3nnn(C)c3=O)c(C3CC3)cc2F)nc1NC[C@@H]1CCCN2CCCC[C@H]12` [Compound 74, 1-(5-(4-(((1S,9aR)-octahydro-1H-quinolizin-1-yl)methylamino)-5-methoxypyrimidin-2-ylamino)-2-cyclopropyl-4-fluorophenyl)-4-methyl-1H-tetrazol-5(4H)-one], for which the pIC50 under setting [1] is above 4.52 and the pIC50 under setting [2] is 5.66.

With `COc1cnc(Nc2ccc(F)c(-n3nnnc3C)c2)nc1NC[C@@H]1CCCN2CCCC[C@H]12` [Compound 75, N2-(4-fluoro-3-(5-methyl-1H-tetrazol-1-yl)phenyl)-N4-(((1S,9aR)-octahydro-1H-quinolizin-1-yl)methyl)-5-methoxypyrimidine-2,4-diamine], the pIC50 under setting [1] was above 4.52 and the pIC50 under setting [2] is 5.54.

For the compound `COc1cnc(Nc2cc(-n3nnnc3C)ccc2F)nc1NC[C@@H]1CCCN2CCCC[C@H]12` [Compound 76, N2-(2-fluoro-5-(5-methyl-1H-tetrazol-1-yl)phenyl)-N4-(((1S,9aR)-octahydro-1H-quinolizin-1-yl)methyl)-5-methoxypyrimidine-2,4-diamine], the pIC50 runs as follows: under setting [1], above 4.52; under setting [2], 5.19.

Consider `COc1ccc(Nc2ncc(OC)c(NC[C@@H]3CCCN4CCCC[C@H]34)n2)cc1-n1nnnc1C` [Compound 77, N4-(((1S,9aR)-octahydro-1H-quinolizin-1-yl)methyl)-5-methoxy-N2-(4-methoxy-3-(5-methyl-1H-tetrazol-1-yl)phenyl)pyrimidine-2,4-diamine], for which the pIC50 was above 4.52 under setting [1] and 5.62 under setting [2].

For `COc1cc(Nc2ncc(OC)c(NC[C@@H]3CCCN4CCCC[C@H]34)n2)cc(-n2nnnc2C)c1` [Compound 78, N4-(((1S,9aR)-octahydro-1H-quinolizin-1-yl)methyl)-5-methoxy-N2-(3-methoxy-5-(5-methyl-1H-tetrazol-1-yl)phenyl)pyrimidine-2,4-diamine], the pIC50 is, setting by setting: under setting [1], above 4.52; under setting [2], 5.65.

For `COc1cnc(Nc2cccc(C#N)c2)nc1NC[C@@H]1CCCN2CCCC[C@H]12` [Compound 79, 3-(4-(((1S,9aR)-octahydro-1H-quinolizin-1-yl)methylamino)-5-methoxypyrimidin-2-ylamino)benzonitrile], the pIC50 runs as follows: under setting [1], above 4.52; under setting [2], 5.27.

For the compound `COc1cnc(Nc2ccc(C)c(C#N)c2)nc1NC[C@@H]1CCCN2CCCC[C@H]12` [Compound 80, 5-(4-(((1S,9aR)-octahydro-1H-quinolizin-1-yl)methylamino)-5-methoxypyrimidin-2-ylamino)-2-methylbenzonitrile], the pIC50 was above 4.52 under setting [1] and 5.60 under setting [2].

`COc1cnc(Nc2ccc(C3CC3)c(C#N)c2)nc1NC[C@@H]1CCCN2CCCC[C@H]12` [Compound 81, 5-(4-(((1S,9aR)-octahydro-1H-quinolizin-1-yl)methylamino)-5-methoxypyrimidin-2-ylamino)-2-cyclopropylbenzonitrile]: the pIC50 under setting [1] was above 4.52 and the pIC50 under setting [2] was 5.88.

In the case of `COc1cnc(Nc2cc(C#N)c(C3CC3)cc2F)nc1NC[C@@H]1CCCN2CCCC[C@H]12` [Compound 82, 5-(4-(((1S,9aR)-octahydro-1H-quinolizin-1-yl)methylamino)-5-methoxypyrimidin-2-ylamino)-2-cyclopropyl-4-fluorobenzonitrile], the pIC50 is above 4.52 under setting [1] and 5.88 under setting [2].

As to `COc1cc(Nc2ncc(OC)c(NC[C@@H]3CCCN4CCCC[C@H]34)n2)cc(OC)c1` [Compound 83, N4-(((1S,9aR)-octahydro-1H-quinolizin-1-yl)methyl)-5-methoxy-N2-(3,5-dimethoxyphenyl)pyrimidine-2,4-diamine], the pIC50 reads like this: under setting [1], above 4.52; under setting [2], 5.41.

For the compound `COc1cnc(Nc2ccc3oc(=O)[nH]c3c2)nc1NC[C@@H]1CCCN2CCCC[C@H]12` [Compound 84, 5-(4-(((1S,9aR)-octahydro-1H-quinolizin-1-yl)methylamino)-5-methoxypyrimidin-2-ylamino)benzo[d]oxazol-2(3H)-one], the pIC50 runs as follows: under setting [1], above 4.52; under setting [2], 4.81.

Take `CN(C)c1cnc(Nc2cc(-n3cnnn3)c(C3CC3)cc2F)nc1NC[C@@H]1CCCN2CCCC[C@H]12` [Compound 85, N2-(4-cyclopropyl-2-fluoro-5-(1H-tetrazol-1-yl)phenyl)-N4-(((1S,9aR)-octahydro-1H-quinolizin-1-yl)methyl)-N5,N5-dimethylpyrimidine-2,4,5-triamine]: the pIC50 reads like this: under setting [1], above 4.52; under setting [2], 5.48.

`Cc1ccc(Nc2ncc(N(C)C)c(NC[C@@H]3CCCN4CCCC[C@H]34)n2)cc1-n1cnnn1` [Compound 86, N4-(((1S,9aR)-octahydro-1H-quinolizin-1-yl)methyl)-N5,N5-dimethyl-N2-(4-methyl-3-(1H-tetrazol-1-yl)phenyl)pyrimidine-2,4,5-triamine]: the pIC50 runs as follows: under setting [1], above 4.52; under setting [2], 4.96.
